Tests used:
[1] = target: Ba/F3 cells, ABL1 WT (Homo sapiens, UniProt P00519); assay: 96-well XTT cell survival assay, Ba/F3 ABL1 WT; assay type: cell-based; details: 72 hours, read-out: ABL1 WT XTT [Ba/F3] IC50
Experimental: (§1) MV4-11 and THP cells were maintained in Iscove's Modified Dulbecco's Medium supplemented with 10% fetal bovine serum (FBS) and penicillin/streptomycin, Ba/F3 cells were maintained in RPMI 1640 supplemented with 10% FBS, penicillin/streptomycin and 5 ng/ml recombinant mouse IL-3.
(§2) Compounds were tested in the following assays in duplicate.
(§3) 96-well XTT assay: Cells (e.g. BaF3 315I, M351I, or E255K cells) were grown in growth media containing various concentrations of compounds (duplicates) on a 96-well plate for 72 hours at 37° C. The starting cell number was 5000-8000 cells per well and volume was 120 μl. At the end of the 72-hour incubation, 40 μl of XTT labeling mixture (50:1 solution of sodium 3′-[1-(phenylamino-carbonyl)-3,4-tetrazolium]-bis(4-methoxy-6-nitro)benzene sulfonic acid hydrate and Electron-coupling reagent: PMS (N-methyl dibenzopyrazine methyl sulfate) were added to each well of the plate. After an additional 2-6 hours of incubation at 37° C., the absorbance reading at 405 nm with background correction at 650 nm was measured with a spectrophotometer.

[2] = target: Ba/F3 cells, ABL1 T315I (Homo sapiens, UniProt P00519, T315I, cells depend on it); assay: 96-well XTT cell survival assay, Ba/F3 ABL1 T315I; assay type: cell-based; details: 72 hours, read-out: ABL1 T315I XTT [Ba/F3] IC50
Experimental: as §1, §2, §3

[3] = target: T1, unphosphorylated T315I Abl kinase domain (Mus musculus, UniProt P00520, T315I); assay: c-Abl T315I 0P bioassay (pyruvate kinase/lactate dehydrogenase coupled enzyme assay); assay type: biochemical; details: zero phosphorylation state (0P), 10 μM ATP, read-out: AbI T315I 0P IC50
T1 construct: purified and unphosphorylated T315I Abl kinase domain; made in house; host or cells: E. coli BL21(DE3) (Codon+RIL or pSA0145 strain)
T1 sequence (P00520 242-493 T315I limits assumed): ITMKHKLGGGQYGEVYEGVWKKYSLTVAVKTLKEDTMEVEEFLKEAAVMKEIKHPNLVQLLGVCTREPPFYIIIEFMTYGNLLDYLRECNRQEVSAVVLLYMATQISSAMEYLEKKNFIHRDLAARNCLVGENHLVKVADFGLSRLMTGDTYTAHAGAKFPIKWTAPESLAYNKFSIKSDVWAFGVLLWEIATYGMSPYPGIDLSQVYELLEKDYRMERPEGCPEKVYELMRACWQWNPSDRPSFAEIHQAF
Description: Although the first of these examples uses the kinase domain of a mutant form of Abl T315I (“Abl T315I KD”), the kinase assays may use various forms of mutant and wild type enzymes, including, for example, the entire protein, the kinase domain, or a portion thereof (e.g. Abl Y393F). The kinases used in the assays may also be of varying phosphorylation states. In the c-Abl example, a mutant kinase at a zero phosphorylation state was used. c-Abl Pyruvate Kinase/Lactate Dehydrogenase Coupled Enzyme Assay
In the c-Abl Pyruvate Kinase (PK)/Lactate Dehydrogenase (LDH) Coupled Assay the protein kinase dependant phosphorylation of a substrate peptide was coupled to the oxidation of NADH. The oxidation of NADH to NAD+ was detected by monitoring a decrease in absorbance at 340 nm.
Materials: Abl substrate peptide=EAIYAAPFAKKK (SEQ ID NO: 1)—OH (Biopeptide, San Diego, Calif.); pNADH (Sigma Cat#N-8129, FW=709.4); 2M MgC12; 1M HEPES buffer, pH 7.5; Phosphoenolpyruvate (PEP) (Sigma Cat#P-7002, FW=234); Lactate dehydrogenase (LDH) (Worthington Biochemical Cat#2756); Pyruvate Kinase (PK) (Sigma Cat#P-9136); ATP (Sigma Cat#A-3377, FW=551); Greiner 384-well UV star plate; and purified and unphosphorylated T315I Abl kinase domain.
Stock Solutions: 10 mM NADH (7.09 mg/ml in miliQH2O) made fresh daily; 10 mM Abl substrate peptide (13.4 mg/ml in miliQH2O) stored at −20° C.; 100 mM HEPES buffer, pH 7.5 (5 ml 1M stock+45 ml miliQH2O); 100 mM MgCl2 (5 ml 2M MgCl2+95 ml dH2O); 100 MM PEP (23.4 mg/ml in dH2O) stored at −20° C.; 10 mM ATP (5.51 mg/ml in dH2O) stored at −20° C. (diluted 50 μl into total of 10 ml miliQH2O daily=50 μM ATP working stock); 1000 U/ml PK (U/mg varies with lot) flash-frozen under liquid N2 and stored at −80° C.; and 1000 U/ml LDH (U/mg varies with lot) flash-frozen under liquid N2 and stored at −80° C.
Standard Assay Setup for 384-well format (50 μl reaction): 300 μM NADH; 10 mM MgCl2; 2 mM PEP; 45U/ml PK; 60 U/ml LDH; 200 μM Abl substrate peptide; 2.5 μl test compound (in DMSO); 2 μg/ml Abl kinase domain; 10 μM ATP; 100 mM HEPES buffer. Positive controls contained DMSO with no test compound. Negative controls contained 5 μl of 0.5M EDTA (50 mM in the assay). The dephosphorylated form of the c-Abl T315I mutant was used in the biochemical screening assays. The kinase reaction was initiated at time t=0 by the addition of ATP.
Activity was measured by following the time-dependent loss of NADH by absorbance spectroscopy at 340 nm. The linear portion of the resulting progress curve was then analyzed by linear regression to get the activity in absorbance units/time, reported as the slope of that best fit line (moles/unit time can be calculated from using molar extinction coefficient for NADH at 340 nm, 6250M^−1 cm^−1).
Data was evaluated using the equation: Z′=1−[3*(σ++σ−)/|μ+−μ−|](Zhang, et al., 1999 J Biomol Screening 4(2) 67-73), where μ denotes the mean and σ the standard deviation. The subscript designates positive or negative controls. The Z′ score for a robust screening assay should be ≧0.50. The typical threshold=μ+−3*σ+. Any value that falls below the threshold was designated a “hit”.
Dose response was analyzed using the equation: y=min+{(max−min)/(1+10^[compound]−logIC50)}, where y is the observed initial slope, max=the slope in the absence of inhibitor, min=the slope at infinite inhibitor, and the IC50 is the [compound] that corresponds to ½ the total observed amplitude (Amplitude=max−min).
To measure modulation, activation, or inhibition of Abl KD, a test compound was added to the assay at a range of concentrations. Inhibitors may inhibit Abl KD activity at an IC50 in the micromolar range, the nanomolar range, or, for example, in the subnanomolar range.
An open-reading frame for c-Abl was amplified from a Mus musculus (mouse) cDNA library prepared from freshly harvested mouse liver using a commercially available kit (invitrogen) by PCR using the following primers: […]
The c-Abl T315I KD (kinase domain) was purified as follows. […]

SMILES | GI50 [1] [µM] | GI50 [2] [µM] | IC50 [3] [µM]
COc1ccccc1-c1c[nH]c2ncc(-c3cccc(C(C(=O)N(C)C)N4CCNCC4)c3)cc12 (stereo not drawn) | > 1 | > 1 | < 0.05
COc1ccccc1-c1c[nH]c2ncc(-c3cccc(C4(C)NC(=O)NC4=O)c3)cc12 (stereo not drawn) | < 1 | > 1 | < 0.05
COc1ccccc1-c1c[nH]c2ncc(-c3cccc(C(C(=O)N(C)CCN(C)C)N4CCNCC4)c3)cc12 (stereo not drawn) | > 1 | > 1 | < 0.05
COc1ccccc1-c1n[nH]c2ncc(-c3cccc(C(C)C(=O)N(C)C)c3)cc12 (stereo not drawn) | > 1 | > 1 | < 0.05
COc1ccccc1-c1n[nH]c2ncc(-c3cccc(C(C)C(=O)N(C)CCN(C)C)c3)cc12 (stereo not drawn) | > 1 | > 1 | < 0.05
COc1ccccc1-c1n[nH]c2ncc(-c3cccc(C(C)C(=O)N4CCC(N(C)C)C4)c3)cc12 (stereo not drawn) | < 1 | < 1 | < 0.05
COc1ccccc1-c1n[nH]c2ncc(-c3cccc(C(C)C(=O)N(C)C4CCN(C)C4)c3)cc12 (stereo not drawn) | < 1 | > 1 | < 0.05
COc1ccccc1-c1n[nH]c2ncc(-c3cccc(C(C)C(=O)N4CCC(O)C4)c3)cc12 (stereo not drawn) | > 1 | > 1 | < 0.05
COc1ccccc1-c1n[nH]c2ncc(-c3cccc(C(C)C(=O)N4CCC(N(C)C)CC4)c3)cc12 (stereo not drawn) | < 1 | < 1 | < 0.05
COc1ccccc1-c1n[nH]c2ncc(-c3cccc(C(C)C(=O)N4CCC(O)CC4)c3)cc12 (stereo not drawn) | < 1 | > 1 | < 0.05
COc1ccccc1-c1n[nH]c2ncc(-c3cccc(C(C)C(=O)N4CC(O)C4)c3)cc12 (stereo not drawn) | > 1 | > 1 | < 0.05
COc1ccccc1-c1c[nH]c2ncc(-c3cccc(C(O)C(=O)N(C)C4CCOCC4)c3)cc12 (stereo not drawn) | < 1 | < 1 | < 0.05
COc1ccccc1-c1n[nH]c2ncc(-c3cccc(C(O)c4ncccc4F)c3)cc12 (stereo not drawn) | < 1 | < 1 | < 0.05
COc1ccccc1-c1n[nH]c2ncc(-c3cccc(C(O)c4ncccc4C(F)(F)F)c3)cc12 (stereo not drawn) | > 1 | > 1 | < 0.05
COc1ccccc1-c1c[nH]c2ncc(-c3cccc(C(O)c4ccccn4)c3)cc12 (stereo not drawn) | < 1 | < 1 | < 0.05
COc1ccccc1-c1n[nH]c2ncc(-c3cccc(C(O)c4ccccn4)c3)cc12 (stereo not drawn) | < 1 | > 1 | < 0.05
COc1ccccc1-c1c[nH]c2ncc(-c3cccc(C(O)c4ncccc4C(F)(F)F)c3)cc12 (stereo not drawn) | > 1 | > 1 | < 0.05

SMILES | GI50 [1] [µM] | GI50 [2] [µM] | IC50 [3] [µM]
CNC(C(=O)N(C)C)c1cccc(-c2cnc3[nH]nc(-c4ccccc4OC)c3c2)c1 (stereo not drawn) | > 1 | > 1 | < 0.05
CNC(C(=O)N(C)CCN(C)C)c1cccc(-c2cnc3[nH]nc(-c4ccccc4OC)c3c2)c1 (stereo not drawn) | > 1 | > 1 | < 0.05
CNC(C(=O)N1CCC(N(C)C)C1)c1cccc(-c2cnc3[nH]nc(-c4ccccc4OC)c3c2)c1 (stereo not drawn) | > 1 | > 1 | < 0.05
CNC(C(=O)N(C)C(C)C)c1cccc(-c2cnc3[nH]nc(-c4ccccc4OC)c3c2)c1 (stereo not drawn) | > 1 | > 1 | < 0.05
COc1ccccc1-c1n[nH]c2ncc(-c3cccc(C(C(=O)N4CCC(N(C)C)C4)N(C)C)c3)cc12 (stereo not drawn) | > 1 | > 1 | 0.05 to 0.5
COc1ccccc1-c1n[nH]c2ncc(-c3cccc(C(C(=O)N(C)CCN(C)C)N(C)C)c3)cc12 (stereo not drawn) | > 1 | > 1 | 0.05 to 0.5
COc1ccccc1-c1c[nH]c2ncc(-c3cccc(C(O)C(=O)N(C)C[C@@H](O)CO)c3)cc12 (stereo partly drawn) | < 1 | < 1 | < 0.05
COc1ccccc1-c1n[nH]c2ncc(-c3cccc(C(O)c4nccn4C)c3)cc12 (stereo not drawn) | < 1 | > 1 | < 0.05
COc1ccccc1-c1c[nH]c2ncc(-c3cccc(C(O)c4nccn4C)c3)cc12 (stereo not drawn) | < 1 | < 1 | < 0.05
COc1ccccc1-c1n[nH]c2ncc(-c3cncc(C(O)C(=O)N(C)C)c3)cc12 (stereo not drawn) | < 1 | < 1 | < 0.05
COc1ccccc1-c1c[nH]c2ncc(-c3cccc(C(O)C(=O)N(C)CC4CCCO4)c3)cc12 (stereo not drawn) | < 1 | < 1 | < 0.05
COc1ccccc1-c1c[nH]c2ncc(-c3cccc(C(O)C(=O)N(C)CC4CCN(C)CC4)c3)cc12 (stereo not drawn) | < 1 | < 1 | < 0.05
COc1ccccc1-c1c[nH]c2ncc(-c3cncc(C(O)C(=O)N(C)Cc4ccncc4)c3)cc12 (stereo not drawn) | > 1 | > 1 | < 0.05
COc1ccccc1-c1c[nH]c2ncc(-c3cccc(C(O)C(=O)N(C)CC4CCOCC4)c3)cc12 (stereo not drawn) | < 1 | < 1 | < 0.05
COc1ccccc1-c1n[nH]c2ncc(-c3cccc(C(O)c4ncccc4C)c3)cc12 (stereo not drawn) | < 1 | < 1 | < 0.05
COc1ccccc1-c1c[nH]c2ncc(-c3cc(C(C#N)C(=O)N(C)C)ncn3)cc12 (stereo not drawn) | > 1 | > 1 | > 0.5

— patent publication US8242280B2, “Fused ring heterocycle kinase modulators” (SGX Pharmaceuticals, Inc., priority 2007, dated 2012)
